Measurements published in patent publication US20250268826A1, “IONIZABLE LIPIDOID COMPOSITIONS AND THERAPEUTIC USES THEREOF” (Flagship Pioneering Innovations VII, LLC, priority 2023, published 2025).
Blank lines part the entries; values can stand above or below the molecule they belong to.

Assays:
[1] = LNP Zeta potential measured using a Zetasizer (Malvern); assay type: physicochemical; details: for Zeta potential: hEPO mRNA, N:P 6; for Zeta potential (mV): LNP with hEPO mRNA, N:P ratio 6; for Zeta (mV): Vaccine Study 2, LNP with spike mRNA, 50/10/38.5/1.5 mol % ionizable lipid:helper lipid:cholesterol:DMG-PEG2k, N-to-P ratio 6
[2] = Apparent pKa of the LNPs by fluorescence based TNS assay; details: for Apparent pKa: Vaccine Study 2, LNP with spike mRNA, 50/10/38.5/1.5 mol % ionizable lipid:helper lipid:cholesterol:DMG-PEG2k, N-to-P ratio 6
[3] = LNP size and polydispersity index (PDI) by dynamic light scattering (DLS); assay type: physicochemical
[4] = Encapsulation efficiency (EE %) by fluorescence based Ribogreen assay; assay type: physicochemical
[5] = Table 1, LNP lipid:DSPC:Cholesterol:DMG-PEG2k 50:10:38.5:1.5 mol %
[6] = Table 8, LNP 50:10:38.5:1.5 mol %
[7] = Table 10, Lipid:DSPC:Cholesterol:DMG-PEG2k 50:10:38.5:1.5 mol %
[8] = Table 11, Lipid:DSPC:Cholesterol:DMG-PEG2k 50:10:38.5:1.5 mol % (ALC-0315: 46.3:9.4:42.7:1.6), HEPES/sodium chloride/sucrose buffer, stored at −80C
[9] = Example 19 Study 1, LNP with SARS-CoV-2 spike mRNA, N:P 6, standard mol. ratios unless noted "opt"
[10] = Table 1, LNP lipid:DSPC:Cholesterol:DMG-PEG2k 50:10:38.5:1.5 mol %, hEPO mRNA, N:P 6
[11] = Table 8, LNP 50:10:38.5:1.5 mol %, hEPO mRNA, N:P 6
[12] = Table 8, LNP Lipid:DSPC:Cholesterol:DMG-PEG2k 50:10:38.5:1.5 mol %, hEPO mRNA, N:P 6
[13] = Table 9, LNP 50:10:38.5:1.5 mol %, hEPO mRNA, N:P 6
[14] = Table 9, LNP Lipid:DSPC:Cholesterol:DMG-PEG2k 50:10:38.5:1.5 mol %, hEPO mRNA, N:P 6
[15] = Table 10, LNP with hEPO mRNA, Lipid:DSPC:Cholesterol:DMG-PEG2k 50:10:38.5:1.5 mol %, N:P ratio 6, DLS
[16] = Table 11, LNP with hEPO mRNA, Lipid:DSPC:Cholesterol:DMG-PEG2k 50:10:38.5:1.5 mol % (ALC-0315: 46.3:9.4:42.7:1.6), N:P ratio 6, HEPES/sodium chloride/sucrose buffer, stored at −80C
[17] = Vaccine Study 2, LNP with spike mRNA, 50/10/38.5/1.5 mol % ionizable lipid:helper lipid:cholesterol:DMG-PEG2k, N-to-P ratio 6
[18] = Table 5, LNP 50:10:38.5:1.5 mol %
[19] = Table 5, LNP 50:10:38.5:1.5 mol %, hEPO mRNA, N:P 6
[20] = Table 5, LNP Lipid:DSPC:Cholesterol:DMG-PEG2k 50:10:38.5:1.5 mol %, hEPO mRNA, N:P 6
[21] = Table 9, LNP 50:10:38.5:1.5 mol %
[22] = Table 5, LNP 60:0:38.5:1.5 mol %, hEPO mRNA, N:P 6

Zeta potential [1, 21]: −20.89 mV
PDI [3, 13]: 0.079
Size [3, 14]: 88 nm
Encapsulation Efficiency % [4, 13]: 99.7%
SMILES: CCCCCCCCC(CCCCCC)C(=O)OCCN(CCOC(=O)C(CCCCCC)CCCCCCCC)C(=O)CN1CCCC1.Cl (centres unmarked) [Compound 960c]

Zeta potential (mV) [1, 8]: −2.1 mV
PDI [3, 16]: 0.102
Size (nm) [3, 16]: 74.1 nm
Encapsulation Efficiency % [4, 16]: 93.6%
SMILES: CCCCCCCC(CCCCCCC)C(=O)OCCN(CCOC(=O)C(CCCCCCC)CCCCCCC)C(=O)C(C)CCN(C)C.Cl (centres unmarked) [Compound 987b]

Zeta potential [1, 21]: −23.35 mV
PDI [3, 13]: 0.099
Size [3, 14]: 61.4 nm
Encapsulation Efficiency % [4, 13]: 99.8%
SMILES: CCCCCCCCC(CCCCCC)C(=O)OCCN(CCOC(=O)C(CCCCCC)CCCCCCCC)C(=O)CN(CC)CCC.Cl (single isomer, unassigned) [Compound 960b]

Zeta potential (mV) [1, 8]: −6.6 mV
PDI [3, 16]: 0.066
Size (nm) [3, 16]: 72.0 nm
Encapsulation Efficiency % [4, 16]: 98.0%
SMILES: CCCCCCCCCC(CCCCCCCCC)C(=O)OCCN(CCOC(=O)C(CCCCCCCCC)CCCCCCCCC)C(=O)C(C)CCN(C)C.Cl (centres unmarked) [Compound 987c]

Zeta potential (mV) [1, 8]: −5.1 mV
PDI [3, 16]: 0.076
Size (nm) [3, 16]: 73.7 nm
Encapsulation Efficiency % [4, 16]: 94.9%
SMILES: CCCCCCCCC(CCCCCC)C(=O)OCCN(CCOC(=O)C(CCCCCC)CCCCCCCC)C(=O)C(C)CCN1CCCCC1.Cl (centres unmarked) [Compound 987m]

The next lines start with the molecule.

SMILES: CCCCCCCCCCCOC(=O)CCCCCN(CCO)CCCCCCCC(=O)OC(CCCCCCCC)CCCCCCCC [SM-102, reference compound]
Zeta potential [1, 5]: −3.729 mV
Zeta potential ([1]; Table 7, LNP 50:10:38.5:1.5 mol %, helper lipid DSPC): −17.15 mV
Zeta potential [1, 6]: −9.7 mV
Zeta potential (mV) [1, 7]: −5.9 mV
Zeta potential (mV) [1, 8]: −1.0 mV
Zeta (mV) [1]: −4.1 mV
Apparent pKa [2]: 7.2
PDI [3, 9]: 0.065
Size [3, 9]: 94.8 nm
PDI [3, 10]: 0.074
Size [3, 10]: 81.8 nm
PDI ([3]; Table 7, LNP 50:10:38.5:1.5 mol %, helper lipid DSPC, hEPO mRNA, N:P 6): 0.041
Size ([3]; Table 7, LNP ionizable lipid:Helper Lipid:Cholesterol:DMG-PEG2k 50:10:38.5:1.5 mol %, helper lipid DSPC, hEPO mRNA, N:P 6): 75.3 nm
PDI [3, 11]: 0.042
Size [3, 12]: 80.3 nm
PDI [3, 13]: 0.098
Size [3, 14]: 80.7 nm
PDI [3, 15]: 0.272
Size (nm) [3, 15]: 56.5 nm
PDI [3, 16]: 0.087
Size (nm) [3, 16]: 69.6 nm
PDI [3, 17]: 0.127
Size (nm) [3, 17]: 88.4 nm
EE (%) [4, 9]: 91.5%
EE (%) [4, 17]: 97.8%

SMILES: CCCCC/C=C\C/C=C\CCCCCCCCC(CCCCCCCC/C=C\C/C=C\CCCCC)OC(=O)CCCN(C)C [Dlin-MC3-DMA, dilinoleylmethyl-4-dimethylaminobutyrate, reference compound]
Apparent pKa [2]: 6.7

SMILES: CCCCCCC(CCCC)C(=O)OCCN(CCOC(=O)C(CCCC)CCCCCC)C(=O)CN (centres unmarked) [Compound 602]
Zeta potential [1, 18]: −5.94 mV
PDI [3, 19]: 0.337
Size [3, 20]: 84.8 nm
Encapsulation Efficiency % [4, 19]: 99.1%

SMILES: CCCCCCCCCC(CCCCCCCCC)C(=O)OCCN(CCOC(=O)C(CCCCCCCCC)CCCCCCCCC)C(=O)C(N)Cc1ccccc1 (centres unmarked) [Compound 621]
Zeta potential [1, 18]: −10.9 mV
PDI [3, 19]: 0.332
Size [3, 20]: 49.4 nm
Encapsulation Efficiency % [4, 19]: 98.9%

SMILES: CCCCCCCC(CCCCCCC)C(=O)OCCN(CCOC(=O)C(CCCCCCC)CCCCCCC)C(=O)CCCN(C)C [Compound 932]
Zeta potential [1, 6]: −9.4 mV
pKa ([2]; Table 8, apparent pKa of LNP 50:10:38.5:1.5 mol %, hEPO mRNA, N:P 6): 6.92
PDI [3, 11]: 0.155
Size [3, 12]: 123.7 nm
Encapsulation Efficiency % [4, 11]: 99.9%

SMILES: CCCCCCCCC(CCCCCC)C(=O)OCCN(CCOC(=O)C(CCCCCC)CCCCCCCC)C(=O)C(C)CNCC.Cl (centres unmarked) [Compound 925]
Zeta potential [1, 6]: −6.1 mV
PDI [3, 11]: 0.146
Size [3, 12]: 79.6 nm
Encapsulation Efficiency % [4, 11]: 99.9%

SMILES: CCCCCCC(CCCC)C(=O)OCCN(CCOC(=O)C(CCCC)CCCCCC)C(=O)C(C)N (centres unmarked) [Compound 609]
Zeta potential [1, 18]: −4.452 mV
Size [3, 20]: 98 nm
Encapsulation Efficiency % [4, 19]: 99.8%

SMILES: CCCCCCCC/C=C\CCCCCCCC(=O)OCCN(CCOC(=O)CCCCCCC/C=C\CCCCCCCC)C(=O)C(N)CO (centres unmarked) [Compound 132]
Zeta potential [1, 5]: −4.36 mV
PDI [3, 10]: 0.15
Size [3, 10]: 75.4 nm
Encapsulation Efficiency % [4, 10]: 92.9%

SMILES: CCCCCCCC(CCCCCCC)C(=O)OCCN(CCOC(=O)C(CCCCCCC)CCCCCCC)C(=O)C(C)N (centres unmarked) [Compound 611]
Zeta potential [1, 18]: −5.841 mV
Zeta potential ([1]; Table 5, LNP 60:0:38.5:1.5 mol %): −5.555 mV
PDI [3, 19]: 0.24
PDI [3, 22]: 0.244
Size [3, 22]: 55.6 nm
Size [3, 20]: 155.4 nm
Encapsulation Efficiency % [4, 19]: 99.3%
Encapsulation Efficiency % [4, 22]: 98.4%

SMILES: CCCCCCCCC(CCCCCC)C(=O)OCCN(CCOC(=O)C(CCCCCC)CCCCCCCC)C(=O)CCCN(C)CC.Cl (centres unmarked) [Compound 936]
Zeta potential [1, 6]: −10.7 mV
PDI [3, 11]: 0.175
Size [3, 12]: 110.1 nm
Encapsulation Efficiency % [4, 11]: 99.9%

SMILES: CCCCCCCCCC(CCCCCCCCC)C(=O)OCCN(CCOC(=O)C(CCCCCCCCC)CCCCCCCCC)C(=O)CCN(C)CC [Compound 917e]
Zeta potential (mV) [1, 7]: −4.2 mV
PDI [3, 15]: 0.222
Size (nm) [3, 15]: 52.5 nm
Encapsulation Efficiency % ([4]; Table 10, LNP with hEPO mRNA, Lipid:DSPC:Cholesterol:DMG-PEG2k 50:10:38.5:1.5 mol %, N:P ratio 6, Ribogreen assay): 95.4%

SMILES: CCCCCCCCC(CCCCCC)C(=O)OCCN(CCOC(=O)C(CCCCCC)CCCCCCCC)C(=O)C(C)CNC.Cl (centres unmarked) [Compound 924]
Zeta potential [1, 6]: −8.7 mV
PDI [3, 11]: 0.142
Size [3, 12]: 87.2 nm
Encapsulation Efficiency % [4, 11]: 99.9%

SMILES: CCCCCCCCC(CCCCCC)C(=O)OCCN(CCOC(=O)C(CCCCCC)CCCCCCCC)C(=O)CCCN1CCCC1.Cl (centres unmarked) [Compound 982]
Zeta potential [1, 6]: −14.2 mV
PDI [3, 11]: 0.081
Size [3, 12]: 120.5 nm
Encapsulation Efficiency % [4, 11]: 99.9%

SMILES: CCCCCCCCC(CCCCCC)C(=O)OCCN(CCOC(=O)C(CCCCCC)CCCCCCCC)C(=O)CCCN(CCC)CCC.Cl (centres unmarked) [Compound 981]
Zeta (mV) [1]: −8.8 mV
Apparent pKa [2]: 7.3
PDI [3, 17]: 0.054
Size (nm) [3, 17]: 84.3 nm
EE (%) [4, 17]: 98.3%

SMILES: CCCCCCCCCC(CCCCCCCC)C(=O)OCCN(CCOC(=O)C(CCCCCCCC)CCCCCCCCC)C(=O)CCCN(C)C.Cl (centres unmarked) [Compound 933]
Zeta potential [1, 6]: −12.2 mV
PDI [3, 11]: 0.301
Size [3, 12]: 110.9 nm
Encapsulation Efficiency % [4, 11]: 99.2%

SMILES: CCCCCCCCC(CCCCCC)C(=O)OCCN(CCOC(=O)C(CCCCCC)CCCCCCCC)C(=O)CCCN(CC)CCC.Cl (centres unmarked) [Compound 980]
Zeta potential [1, 6]: −18.1 mV
PDI [3, 11]: 0.159
Size [3, 12]: 90.1 nm
Encapsulation Efficiency % [4, 11]: 94.9%

SMILES: CCCCCCCCCCCCC(CC)C(=O)OCCN(CCOC(=O)C(CC)CCCCCCCCCCCC)C(=O)C(N)Cc1ccccc1 (centres unmarked) [Compound 620]
Zeta potential [1, 18]: −5.044 mV
PDI [3, 19]: 0.23
Size [3, 20]: 56.7 nm
Encapsulation Efficiency % [4, 19]: 99%

SMILES: CCCCCCCCC(CCCCCC)C(=O)OCCN(CCOC(=O)C(CCCCCC)CCCCCCCC)C(=O)CNCCC.Cl (centres unmarked) [Compound 968]
Zeta potential [1, 21]: −13.15 mV
PDI [3, 13]: 0.368
Size [3, 14]: 76.7 nm
Encapsulation Efficiency % [4, 13]: 98.2%

SMILES: CCCCCCCCCCCC(=O)OCCN(CCOC(=O)CCCCCCCCCCC)C(=O)CN [Compound 103]
Zeta potential [1, 5]: 9.778 mV
PDI [3, 10]: 0.092
Size [3, 10]: 77.3 nm
Encapsulation Efficiency % [4, 10]: 97.5%
